Results taken from US10577428B2, “Anti-factor XI monoclonal antibodies and methods of use thereof” (Oregon Health & Science University, priority 2007, dated 2020).

Assays:
baboons (Papio anubis) = experiment: Vascular graft occlusion studies, collagen coated 2 mm i.d. grafts, high arterial shear; assay type: in vivo, baboon (Papio anubis)
Description: Thrombus formation was initiated within the baboon AV shunt by interposing a thrombogenic segment of prosthetic vascular graft (ePTFE, WL Gore & Co., Flagstaff, Ariz.), as previously described (Hanson et al. (1993) J. Clin. Invest. 92:2003-2012). To consistently trigger platelet-dependent thrombus formation, the clinical graft segments were coated with immobilized collagen. Twenty mm long grafts having internal diameters (i.d.) of either 2 or 4 mm were filled with equine type I collagen (1 mg/ml; Nycomed Arzenmittel, Munich, Germany) for 15 min, and then dried overnight under sterile airflow. This method produced a uniform collagen coating within the graft lumen as determined by scanning electron microscopy (FIGS. 1B and 1C). The thrombogenic collagen-coated grafts were then incorporated between segments of silicon rubber tubing, and deployed into the AV shunts (FIG. 1A). The grafts were exposed to blood for up to 60 min. During each experiment, the blood flow rate through the graft was restricted to 100 ml/min by clamping the proximal silicone rubber shunt segment, thereby producing a mean wall shear rate (MWSR) in the 4 mm grafts of 265 s^−1, while in the 2 mm grafts the initial MWSR was 2120 s^−1. Flow rates were continuously monitored using an ultrasonic flow meter (Transonics Systems, Ithaca, N.Y.). […] Baseline blood flow was restored through the permanent shunt after each experiment. In the 2 mm diameter grafts blood flow rates progressively declined due to thrombus formation. The grafts were removed from the AV shunts when the flow rate fell from 100 ml/min to below 20 ml/min, signaling imminent occlusion. The time from initiation of blood flow to graft removal (<20 ml/min blood flow) was taken as the occlusion time.
Occlusion studies were performed using 10 mm long 2 mm i.d. collagen coated devices which produced high arterial shear rates (2120 s^−1 at 100 ml/min clamped blood flow). Accumulation of labeled platelets onto 2 mm thrombogenic grafts were measured in 3-min intervals using a gamma scintillation camera. Flow was maintained at 100 ml/min by proximal clamping for as long as possible, and then allowed to decrease as the propagating thrombus began to occlude the device. A final blood flow rate of 20 ml/min was used as a cutoff for occlusion, since a fully occlusive thrombi and lack of blood flow through the device could lead to occlusion of the shunt and a significant loss of blood for the animals.
Since aspirin is a less antihemostatic agent than heparin, and it is often included in the standard treatment of arterial-type platelet-dependent thrombosis, ASA was used in the current studies with the occlusion-prone 2 mm i.d. grafts as a long-acting positive control. ASA (32 mg/kg) was administered orally 2-4 h before each thrombosis experiment, as described previously (Hanson et al. (1985) J. Clin. Invest. 75:1591-1599). Four weeks were allowed for washout of each aXIMab and ASA before performing new experiments in the same animal.

baboons [1] = experiment: Observation for adverse reactions and bleeding events; assay type: in vivo, baboon; details: one week follow-up periods of observation
baboons [2] = experiment: Standard template skin bleeding time test (Surgicutt); assay type: in vivo, baboon
Description: The effects of FXI inhibition and aspirin on primary hemostasis in baboons were assessed using the standard template skin bleeding time test (Surgicutt®, International Technidyne Corp). […] All bleeding time measurements were performed by the same expert technician. For indirect assessment of hemostasis, aPTT and PT measurements were also performed.

baboons [3] = experiment: Effect of locally infused PPACK during local sampling; assay type: in vivo, baboon; details: PPACK 0.5 mg/ml infused locally at 20 μl/min
Description: A novel local sampling method was used to assess the local production of thrombogenic mediators by sampling blood that superfused propagating experimental thrombi. […] All blood samples were collected into 1/10th volume 3.8% citrate anticoagulant. Systemic samples (1 ml each) were collected before initiation of thrombosis as well as 30 and 60 min into each study. A total of 6 local blood samples were drawn from the peripheral blood IBL at a rate of 100 μl/min over 10 min intervals out of a 0.64 mm port which was located 10 mm distal to the growing thrombus (FIG. 1A). […] Infusion and sampling were regulated by syringe pumps (Harvard Apparatus). Local sampling was performed only with the 4 mm i.d. devices in this study.

| effect on bleeding time / hemostasis (baboons [2]; FIG. 6, compared with no treatment controls) | standard template bleeding time (baboons [2]; vehicle-treated controls 3.4±0.2 min) [min] | Compound | platelet deposition (baboons (Papio anubis); 2 mm i.d. grafts) | Number occluded (baboons (Papio anubis); 2 mm i.d. grafts, 60 min) | Embolic events per experiment (baboons (Papio anubis); 2 mm i.d. grafts, mean ± SEM) | Fibrin deposition (baboons (Papio anubis); 2 mm i.d. grafts, mean ± SEM, control 0.30 ± 0.04) [mg] | grafts remained patent (baboons (Papio anubis); 2 mm i.d. grafts, over 60 min) | time to graft occlusion prolonged by (average) (baboons (Papio anubis); in 4 grafts, ASA 32 mg/kg orally) [min] | adverse bleeding events (baboons [1]) | systemic prothrombin times (PT) or activated partial thromboplastin times (aPTT) (baboons [3]) |
| --- | --- | --- | --- | --- | --- | --- | --- | --- | --- | --- |
| prolonged the bleeding time | 6.4 ± 0.7 | CC(=O)Oc1ccccc1C(=O)O [ASA, acetylsalicylic acid, reference compound] | reduced platelet deposition | 4/6 | 1.5 ± 0.6 | 0.23 ± 0.04 | 2 | 18 | No re-bleeding phenomena, petechiae, hematomas or other adverse bleeding events | – |
| – | – | NC(N)=NCCC[C@H](NC(=O)[C@@H]1CCCN1C(=O)[C@H](N)Cc1ccccc1)C(=O)CCl [PPACK, Phe-Pro-Arg-chloromethylketone] | – | – | – | – | – | – | – | did not affect |
